Target: Gastrin/cholecystokinin type B receptor (Cavia porcellus)
Test: Inhibition of [3H]pCCK-8 binding to Guinea pig cortex membrane Cholecystokinin type B receptor

Ki: 51 nM
SMILES: C[C@]1(Cc2c[nH]c3ccccc23)NC(=O)CCCCSSCC[C@@H](C(=O)N[C@@H](CC(=O)O)C(=O)N[C@@H](Cc2ccccc2)C(N)=O)NC1=O [N-(1-Carbamoyl-2-phenyl-ethyl)-3-{[(5R,8R)-8-(1H-indol-3-ylmethyl)-8-methyl-7,10-dioxo-1,2-dithia-6,9-diaza-cyclotetradecane-5-carbonyl]-amino}-succinamic acid]
